Test results: patent US10251869B2, “Compositions and methods of inhibiting metallo-β-lactamases” (priority 2014, dated 2019)
≈ marks a conversion by molar mass, not a printed value.

How the values were obtained:
VIM-24 [1] = target: T1, VIM-24 (Escherichia coli, UniProt Q5U7L7, R205L); assay: Steady-state kinetic parameters of substrate hydrolysis by VIM-24; assay type: biochemical; settings: pH 7.5, 25° C., average ± SD, triplicate
T1 construct: which corresponds to cleavage after residues 20 (plus an additional Met residue on the N-terminus); made in house; host or cells: E. coli BL21(DE3) pLys, plasmid pET-24a(+)-blaVIM-24-S21
Text: Steady-state reactions were followed using an Agilent (Santa Clara, Calif.) 8453 Diode Array spectrophotometer as previously described. […] For ceftazidime and cefepime, a 0.2-cm path length quartz cuvette was used. A nonlinear leastsquares fit of the data (Henri Michaelis-Menten equation) using Enzfitter (Biosoft Corporation, Ferguson, Mo.) was employed to obtain the steady-state kinetic parameters Vmax and KM according to equation 1.
In this equation the observed first-order rate constant k=kcat/KM*[E].

VIM-2 = target: T2, VIM-2 (Pseudomonas aeruginosa, UniProt Q9K2N0); assay: BTZ inhibition kinetics of nitrocefin hydrolysis by VIM-2; assay type: biochemical, P. aeruginosa
T2 construct: made in house; host or cells: E. coli BL21(DE3) pLys, plasmid pET-24a(+)-blaVIM-2-S21
Text: (§1) Analysis of BTZ inhibition kinetics. Models involving one, or two-step slow binding were considered to analyze BTZ inhibition of NFC hydrolysis by VIM-2 and VIM-24 (Scheme 1).
(§2) Here E represents the free enzyme, and I the free inhibitor, EI is the final enzyme-inhibitor complex for a single step slow binding mechanism, and E*I is the enzyme-inhibitor complex formed after conformational changes in a two-step slow binding mechanism. Therefore, the dissociation constant for the EI complex (Ki), also called the inhibitor constant, is defined as Ki=k−1/k1; the dissociation constant for the E*I complex (Ki′) is defined as Ki′=k−2/k2, and the overall dissociation constant for the two-step mechanism (Ki*) is defined as Ki*=Ki/(1+([…])).
(§3) The Ki for each inhibitor was determined by direct competition assays under steady-state conditions. The initial velocity was measured in the presence of a constant concentration of enzyme (3 nM for VIM-2 and 4 nM for VIM-24) with increasing concentrations of inhibitor (5-60 μM) against a fixed concentration (5 x KM) of the indicator substrate, NCF, as previously described (42-44). The reactions were started by addition of VIM-2 or VIM-24 to substrate or to mixtures of substrate and inhibitor. Data were linearized by plotting inverse initial steady-state velocities (1/v0) against inhibitor concentration (I). Ki (observed) was determined by dividing the value for the y intercept by the slope of the line. Ki determinations were corrected to account for the affinity of NCF for the β-lactamase according to equation 3.
(§4) Measurements of association rate constants for inhibitor binding were carried out at 25° C. in 10 mM HEPES at pH 7.5 supplemented with 200 mM NaCl, 50 μM […] and 50 μg/ml BSA, in the presence of several concentrations of each compound. Reactions were then initiated by the addition of β-lactamase (3 nM VIM-2 or 4 nM VIM-24) to a mixture of 50 μM NCF and each BTZ without pre-incubation. Inhibitor association rate constants were estimated from linear extrapolation of the observed rate constant for inhibition (kobs), which was obtained by fitting progress curves of NFC hydrolysis to Eq. 4:
(§5) As previously described, the linear dependence of kobs vs. [I] at limiting I concentration approximates second-order rate constant k2/Ki. The observed second-order rate constant also includes an adjustment for competition between inhibitor and substrate binding (Eq. 5).
(§6) Also, vs calculated from the progress curves of NCF hydrolysis for each concentration of inhibitor were used to determine Ki*, according to the relationship shown in equation 6 (5). The value reported is the mean of three velocities±SD.
(§7) To further test the time-dependent inhibition mechanism of inhibitor binding, assays using dilutions of pre-formed complexes were performed. For these experiments, 1 μM of enzyme was incubated with varying concentrations of the inhibitor which allowed for complete inactivation of the enzyme during the 5 min incubation at 25° C. The reactions were then diluted 2,000-fold in 10 mM HEPES at pH 7.5 supplemented with 200 mM NaCl, 50 μM […] and 50 μg/ml BSA, which contained 50 μM NCF. Reactivation of the enzyme based on NCF hydrolysis was monitored over time. Control reaction with the free enzyme was performed in the same fashion.

VIM-24 [2] = target: T1, VIM-24; assay: BTZ inhibition kinetics of nitrocefin hydrolysis by VIM-24; assay type: biochemical; settings: rate constant for formation of E*I
Text: as §1, §2, §3, §4, §5, §6, §7

[3] = tested on: E. coli DH10B pBCSK(−) producing VIM-24 (R228L); assay: MIC by agar dilution, E. coli DH10B producing VIM-24; assay type: cell-based; settings: Escherichia coli, MHA, read-out: MIC
Experimental: (§8) E. coli DH10B (Invitrogen, Carlsbad, Calif.) was used as a host strain for pBCSK (−) blaVIM-2, and to obtain a mutant library at position 228 by site-saturation mutagenesis, using the QuickChange XL Site-directed Mutagenesis Kit (Stratagene). Briefly, primers that capture all 19 variants at MBL position 228 were designed and PCR mutagenic reactions were conducted using pBCSK (−) blaVIM-2 as a template, and transformed into E. coli DH10B. Single colonies were selected for plasmid purification, and successful mutagenesis was verified by complete DNA sequencing.
(§9) The effect of Zn^2+ availability was also tested by agar dilution using MH supplemented with 250 μM ZnSO4 or 5 μM EDTA. Reported values are the mode of at least 3 biological replicates.

[4] = tested on: E. coli DH10B pBCSK(−) producing VIM-2 (228R); assay: MIC by agar dilution, E. coli DH10B producing VIM-2; assay type: cell-based; settings: Escherichia coli, MHA, read-out: MIC
Text: A forward primer containing the SacI restriction site and a reverse primer with the BamHI restriction site were used to amplify blaVIM-2 including the pET24a(+) ribosomal binding site, using plasmid pET-24a(+)-blaVIM-2 as template. The product was then subcloned into phagemid pBCSK (−) (Agilent (Santa Clara, Calif.)) using the above restriction sites, and thus placing the blaVIM-2 open reading frame under control of the lac promoter, to yield phagemid pBCSK (−) blaVIM-2.
as §8, §9

[5] = tested on: E. coli DH10B pBCSK(−) producing R228P variant; assay: MIC by agar dilution, E. coli DH10B producing VIM-2 R228P; assay type: cell-based; settings: Escherichia coli, MHA
Experimental: as §8, §9

[6] = tested on: E. coli DH10B pBCSK(−) producing R228Y variant; assay: MIC by agar dilution, E. coli DH10B producing VIM-2 R228Y; assay type: cell-based; settings: Escherichia coli, MHA
Experimental: as §8, §9

E. coli pBC SK(−) = assay: MIC by agar dilution, E. coli DH10B host with empty phagemid; assay type: cell-based; settings: Escherichia coli, MHA
Experimental: as §8, §9

[7] = tested on: E. coli DH10B pBCSK(−) producing R228M variant; assay: MIC by agar dilution, E. coli DH10B producing VIM-2 R228M; assay type: cell-based; settings: Escherichia coli, MHA
Experimental: as §8, §9

[8] = tested on: E. coli DH10B pBCSK(−) producing R228Q variant; assay: MIC by agar dilution, E. coli DH10B producing VIM-2 R228Q; assay type: cell-based; settings: Escherichia coli, MHA
Experimental: as §8, §9

[9] = tested on: E. coli DH10B pBCSK(−) producing R228K variant; assay: MIC by agar dilution, E. coli DH10B producing VIM-2 R228K; assay type: cell-based; settings: Escherichia coli, MHA
Experimental: as §8, §9

O=C(Cc1cccs1)N[C@@H]1C(=O)N2C(C(=O)O)=C(/C=C/c3ccc([N+](=O)[O-])cc3[N+](=O)[O-])CS[C@H]12 [Nitrocefin]
Kcat (VIM-24 [1]): 171 ± 4 s⁻¹ | Km (VIM-24 [1]): 11 ± 1 µM

CC1(C)SC2CSC(CS)N2C1C(=O)O [L-VC26]
Ki (VIM-2; initial complex EI, NCF as reporter substrate): 3800 ± 200 nM | Ki (VIM-2; overall dissociation constant of two-step mechanism (E*I)): 250 ± 10 nM | k−2 (VIM-2; rate constant for breakdown of E*I): 0.001 ± 1 × 10^−3 s^−1 | k2 (VIM-2; rate constant for formation of E*I): 0.02 ± 1 × 10^−3 s^−1 | k2 (VIM-24 [2]): 0.04 ± 2 × 10^−3 s−1

CC1(C)S[C@@H]2[C@H](NC(=O)[C@H](N)c3ccccc3)C(=O)N2[C@H]1C(=O)O [Ampicillin]
MIC [3]: 512 µg/mL (≈ 1470 µM) | MIC [4]: 512 µg/mL (≈ 1470 µM) | MIC [5]: 32 µg/mL (≈ 91.6 µM) | MIC [6]: 1020 µg/mL (≈ 2930 µM) | MIC (E. coli pBC SK(−)): 4 µg/mL (≈ 11.4 µM) | MIC [7]: 1020 µg/mL (≈ 2930 µM) | MIC [8]: 1020 µg/mL (≈ 2930 µM) | MIC [9]: 32 µg/mL (≈ 91.6 µM)

CC(=O)OCC1=C(C(=O)O)N2C(=O)[C@@H](NC(=O)Cc3cccs3)[C@H]2SC1 [Cephalothin]
Kcat (VIM-24 [1]): 150 ± 9 s⁻¹ | Km (VIM-24 [1]): 33 ± 5 µM | MIC [5]: 16 µg/mL (≈ 40.4 µM) | MIC (E. coli pBC SK(−)): 8 µg/mL (≈ 20.2 µM) | MIC [8]: 1020 µg/mL (≈ 2580 µM) | MIC [9]: 16 µg/mL (≈ 40.4 µM)

CO/N=C(\C(=O)N[C@@H]1C(=O)N2C(C(=O)O)=C(CSc3nc(=O)c(=O)[nH]n3C)CS[C@H]12)c1csc(N)n1 [Ceftriaxone]
MIC [3]: 8 µg/mL (≈ 14.4 µM) | MIC [4]: 8 µg/mL (≈ 14.4 µM) | MIC [5]: 0.5 µg/mL (≈ 0.902 µM) | MIC [6]: 16 µg/mL (≈ 28.9 µM) | MIC (E. coli pBC SK(−)): 0.5 µg/mL (≈ 0.902 µM) | MIC [7]: 16 µg/mL (≈ 28.9 µM) | MIC [8]: 32 µg/mL (≈ 57.7 µM) | MIC [9]: 1 µg/mL (≈ 1.8 µM)
